Source: ChEMBL document CHEMBL1147210, “Synthesis and antibacterial activity of levofloxacin derivatives with certain bulky residues on piperazine ring” (Eur J Med Chem, 2007)
≈ marks a conversion by molar mass, not a printed value. Calls of active or inactive are those of the source. The calls are words filed in the database; no cut-off is given here.

How the values were obtained:
[1] = tested on: Staphylococcus aureus; assay: Antibacterial activity against Staphylococcus aureus ATCC 25923 after 18 hrs; assay type: functional; conditions: ATCC 25923, 18 h
[2] = tested on: Staphylococcus aureus; assay: Antibacterial activity against Staphylococcus aureus ATCC 6538p after 18 hrs; assay type: functional
[3] = tested on: Staphylococcus aureus; assay: Antibacterial activity against methicillin-resistant Staphylococcus aureus isolate 1 after 18 hrs; assay type: functional
[4] = tested on: Staphylococcus aureus; assay: Antibacterial activity against methicillin-resistant Staphylococcus aureus isolate 2 after 18 hrs; assay type: functional
[5] = tested on: Staphylococcus epidermidis; assay: Antibacterial activity against Staphylococcus epidermidis ATCC 14940 after 18 hrs; assay type: functional; conditions: ATCC 14940, 18 h
[6] = tested on: Staphylococcus epidermidis; assay: Antibacterial activity against Staphylococcus epidermidis ATCC 12228 after 18 hrs; assay type: functional; conditions: ATCC 12228, 18 h
[7] = tested on: Bacillus subtilis; assay: Antibacterial activity against Bacillus subtilis ATCC 6051 after 18 hrs; assay type: functional; conditions: ATCC 6051, 18 h
[8] = tested on: Enterococcus faecalis; assay: Antibacterial activity against Enterococcus faecalis NCTC 6013 after 18 hrs; assay type: functional; conditions: NCTC 6013, 18 h
[9] = tested on: Serratia marcescens; assay: Antibacterial activity against Serratia marcescens PTCC 1111 after 18 hrs; assay type: functional
[10] = tested on: Escherichia coli; assay: Antibacterial activity against Escherichia coli ATCC 25922 after 18 hrs; assay type: functional; conditions: ATCC 25922, 18 h
[11] = tested on: Escherichia coli; assay: Antibacterial activity against Escherichia coli NCTC 12900 after 18 hrs; assay type: functional; conditions: NCTC 12900, 18 h
[12] = tested on: Klebsiella pneumoniae; assay: Antibacterial activity against Klebsiella pneumoniae ATCC 10031 after 18 hrs; assay type: functional; conditions: ATCC 10031, 18 h
[13] = tested on: Salmonella typhi; assay: Antibacterial activity against Salmonella typhi ATCC 19430 after 18 hrs; assay type: functional, Salmonella enterica subsp. enterica serovar Typhi; conditions: Salmonella enterica, ATCC 19430, 18 h
[14] = tested on: Shigella flexneri; assay: Antibacterial activity against Shigella flexneri NCTC 8516 after 18 hrs; assay type: functional; conditions: NCTC 8516, 18 h
[15] = tested on: Pseudomonas aeruginosa; assay: Antibacterial activity against Pseudomonas aeruginosa ATCC 27853 after 18 hrs; assay type: functional; conditions: ATCC 27853, 18 h
[16] = tested on: MCF7; assay: Cytotoxic activity against human MCF7 cells after 48 hrs by MTT reduction assay; assay type: functional, cell-based; conditions: for IC50: MCF7, 48 h

Compound	MIC [1] [µg/mL]	MIC [2] [µg/mL]	MIC [3] [µg/mL]	MIC [4] [µg/mL]	MIC [5] [µg/mL]	MIC [6] [µg/mL]	MIC [7] [µg/mL]	MIC [8] [µg/mL]	MIC [9] [µg/mL]	MIC [10] [µg/mL]	MIC [11] [µg/mL]	MIC [12] [µg/mL]	MIC [13] [µg/mL]	MIC [14] [µg/mL]	MIC [15] [µg/mL]	IC50 [16] [µM]	Activity [16]
C[C@H]1COc2c(N3CCN(CC(=O)c4ccc(Cl)cc4Cl)CC3)c(F)cc3c(=O)c(C(=O)O)cn1c23	0.5 (≈ 0.936 µM)	1 (≈ 1.87 µM)	0.5 (≈ 0.936 µM)	1 (≈ 1.87 µM)	0.5 (≈ 0.936 µM)	1 (≈ 1.87 µM)	1 (≈ 1.87 µM)	0.5 (≈ 0.936 µM)	> 4	1 (≈ 1.87 µM)	2 (≈ 3.74 µM)	> 4	2 (≈ 3.74 µM)	1 (≈ 1.87 µM)	> 4	–	–
C[C@H]1COc2c(N3CCN(CC(=O)c4ccc(F)cc4)CC3)c(F)cc3c(=O)c(C(=O)O)cn1c23	1 (≈ 2.07 µM)	1 (≈ 2.07 µM)	0.5 (≈ 1.03 µM)	1 (≈ 2.07 µM)	0.5 (≈ 1.03 µM)	0.5 (≈ 1.03 µM)	0.5 (≈ 1.03 µM)	0.25 (≈ 0.517 µM)	> 4	1 (≈ 2.07 µM)	2 (≈ 4.14 µM)	> 4	1 (≈ 2.07 µM)	1 (≈ 2.07 µM)	> 4	–	–
C[C@H]1COc2c(N3CCN(CC(=O)c4ccc(Cl)cc4)CC3)c(F)cc3c(=O)c(C(=O)O)cn1c23	0.5 (≈ 1 µM)	0.5 (≈ 1 µM)	0.25 (≈ 0.5 µM)	0.25 (≈ 0.5 µM)	0.12 (≈ 0.24 µM)	0.25 (≈ 0.5 µM)	0.12 (≈ 0.24 µM)	0.06 (≈ 0.12 µM)	4 (≈ 8 µM)	0.5 (≈ 1 µM)	1 (≈ 2 µM)	> 4	0.25 (≈ 0.5 µM)	0.25 (≈ 0.5 µM)	> 4	5.2	–
C[C@H]1COc2c(N3CCN(C/C(=N\OCc4ccccc4)c4ccccc4)CC3)c(F)cc3c(=O)c(C(=O)O)cn1c23	> 4	> 4	> 4	> 4	> 4	> 4	> 4	> 4	> 4	> 4	> 4	> 4	> 4	> 4	> 4	–	inactive
C[C@H]1COc2c(N3CCN(C/C(=N\O)c4ccc(F)cc4)CC3)c(F)cc3c(=O)c(C(=O)O)cn1c23	1 (≈ 2.01 µM)	1 (≈ 2.01 µM)	1 (≈ 2.01 µM)	1 (≈ 2.01 µM)	0.5 (≈ 1 µM)	0.5 (≈ 1 µM)	0.25 (≈ 0.502 µM)	0.25 (≈ 0.502 µM)	> 4	4 (≈ 8.02 µM)	2 (≈ 4.01 µM)	> 4	1 (≈ 2.01 µM)	1 (≈ 2.01 µM)	> 4	–	–
C[C@H]1COc2c(N3CCN(CC(=O)c4ccc(Br)cc4)CC3)c(F)cc3c(=O)c(C(=O)O)cn1c23	0.5 (≈ 0.918 µM)	1 (≈ 1.84 µM)	1 (≈ 1.84 µM)	0.5 (≈ 0.918 µM)	0.25 (≈ 0.459 µM)	0.25 (≈ 0.459 µM)	0.25 (≈ 0.459 µM)	0.12 (≈ 0.22 µM)	4 (≈ 7.35 µM)	0.5 (≈ 0.918 µM)	0.5 (≈ 0.918 µM)	> 4	0.5 (≈ 0.918 µM)	0.5 (≈ 0.918 µM)	> 4	5.2	–
C[C@H]1COc2c(N3CCN(CC(=O)c4ccccc4)CC3)c(F)cc3c(=O)c(C(=O)O)cn1c23	0.5 (≈ 1.07 µM)	0.5 (≈ 1.07 µM)	0.5 (≈ 1.07 µM)	1 (≈ 2.15 µM)	0.5 (≈ 1.07 µM)	0.5 (≈ 1.07 µM)	0.5 (≈ 1.07 µM)	4 (≈ 8.59 µM)	4 (≈ 8.59 µM)	0.12 (≈ 0.258 µM)	0.25 (≈ 0.537 µM)	0.5 (≈ 1.07 µM)	0.12 (≈ 0.258 µM)	0.25 (≈ 0.537 µM)	> 4	–	–
Cc1ccc(C(=O)CN2CCN(c3c(F)cc4c(=O)c(C(=O)O)cn5c4c3OC[C@@H]5C)CC2)cc1	0.5 (≈ 1.04 µM)	1 (≈ 2.09 µM)	1 (≈ 2.09 µM)	1 (≈ 2.09 µM)	0.5 (≈ 1.04 µM)	0.5 (≈ 1.04 µM)	0.5 (≈ 1.04 µM)	0.25 (≈ 0.521 µM)	> 4	1 (≈ 2.09 µM)	0.5 (≈ 1.04 µM)	> 4	1 (≈ 2.09 µM)	0.5 (≈ 1.04 µM)	> 4	–	–
C[C@H]1COc2c(N3CCNCC3)c(F)cc3c(=O)c(C(=O)O)cn1c23 [N-DESMETHYL LEVOFLOXACIN]	4 (≈ 11.5 µM)	2 (≈ 5.76 µM)	2 (≈ 5.76 µM)	2 (≈ 5.76 µM)	1 (≈ 2.88 µM)	1 (≈ 2.88 µM)	1 (≈ 2.88 µM)	0.06 (≈ 0.173 µM)	1 (≈ 2.88 µM)	0.12 (≈ 0.345 µM)	0.12 (≈ 0.345 µM)	0.25 (≈ 0.72 µM)	0.06 (≈ 0.173 µM)	0.06 (≈ 0.173 µM)	> 4	–	–
